Results as given in patent US8772504B2, “Substituted benzoxazole, benzimidazole, oxazolopyridine and imidazopyridine derivatives as gamma secretase modulators” (Janssen Pharmaceuticals, Inc., priority 2009, dated 2014).

How the values were obtained:
Assay type in all cases: cell-based
Aβ42 [1] = assay: Screening for γ-secretase-modulating activity, Method 2: Aβ42 Alphalisa on SKNBE2 cell supernatant; conditions: Method 2, Table 3c, SKNBE2 cells carrying APP 695 wild type, overnight incubation
Procedure: (§1) Screening was carried out using SKNBE2 cells carrying the APP 695—wild type, grown in Dulbecco's Modified Eagle's Medium/Nutrient mixture F-12 (DMEM/NUT-mix F-12) (HAM) provided by Invitrogen (cat no. 10371-029) containing 5% Serum/Fe supplemented with 1% non-essential amino acids, 1-glutamine 2 mM, Hepes 15 mM, penicillin 50 U/ml (units/ml) en streptomycin 50 μg/ml. Cells were grown to near confluency.
(§2) The screening was performed using a modification of the assay as described in Citron et al (1997) Nature Medicine 3: 67. Briefly, cells were plated in a 384-well plate at 10^4 cells/well in Ultraculture (Lonza, BE12-725F) supplemented with 1% glutamine (Invitrogen, 25030-024), 1% non-essential amino acid (NEAA), penicillin 50 U/ml en streptomycin 50 μg/ml in the presence of test compound at different test concentrations. The cell/compound mixture was incubated overnight at 37° C., 5% CO2. The next day the media were assayed by two sandwich immuno-assays, for Aβ42 and Aβtotal.
(§3) Aβtotal and Aβ42 concentrations were quantified in the cell supernatant using the Aphalisa technology (Perkin Elmer). Alphalisa is a sandwich assay using biotinylated antibody attached to streptavidin coated donorbeads and antibody conjugated to acceptor beads. In the presence of antigen, the beads come into close proximity. The excitation of the donor beads provokes the release of singlet oxygen molecules that trigger a cascade of energy transfer in the acceptor beads, resulting in light emission. To quantify the amount of Aβ42 in the cell supernatant, monoclonal antibody specific to the C-terminus of Aβ42 (JRF/cAβ42/26) was coupled to the receptor beads and biotinylated antibody specific to the N-terminus of Aβ (JRF/AβN/25) was used to react with the donor beads. To quantify the amount of Aβtotal in the cell supernatant, monoclonal antibody specific to the N-terminus of Aβ (JRF/AβN/25) was coupled to the receptor beads and biotinylated antibody specific to the mid region of Aβ (biotinylated 4G8) was used to react with the donor beads.
(§4) To obtain the values reported in Table 3c, the data were calculated as percentage of the maximum amount of amyloid Beta 42 measured in the absence of the test compound. The sigmoidal dose response curves were analyzed using non-linear regression analysis with percentage of the control plotted against the log concentration of the compound. A 4-parameter equation was used to determine the IC50.

Aβtotal [2] = assay: Screening for γ-secretase-modulating activity, Method 2: Aβtotal Alphalisa on SKNBE2 cell supernatant; conditions: Method 2, Table 3c, SKNBE2 cells carrying APP 695 wild type, overnight incubation
Procedure: as §1, §2, §3, §4

Aβ42 [3] = assay: Screening for γ-secretase-modulating activity, Method 1: Aβ42 sandwich ELISA on SKNBE2 cell media; conditions: SKNBE2 cells carrying APP 695 wild type
Procedure: as §1, with “Gibco” for “Invitrogen”, “31330-38)” for “10371-029)”, “acids.” for “acids, 1-glutamine 2 mM, Hepes 15 mM, penicillin 50 U/ml (units/ml) en streptomycin 50 μg/ml.”
(§5) The screening was performed using the assay as described in Citron et al (1997) Nature Medicine 3: 67. Briefly, cells were plated in a 96-well plate at about 10^5 cells/ml one day prior to addition of compounds. Compounds were added to the cells in Ultraculture (Lonza, BE12-725F) supplemented with 1% glutamine (Invitrogen, 25030-024) for 18 hours. The media were assayed by two sandwich ELISAs, for Aβ42 and Aβtotal. Toxicity of the compounds was assayed by WST-1 cell proliferation reagent (Roche, 1 644 807) according to the manufacturer's protocol.
To quantify the amount of Aβ42 in the cell supernatant, commercially available Enzyme-Linked-Immunosorbent-Assay (ELISA) kits were used (Innotest® β-Amyloid(1-42), Innogenetics N.V., Ghent, Belgium). The Aβ42 ELISA was performed essentially according to the manufacturer's protocol. Briefly, the standards (dilutions of synthetic Aβ1-42) were prepared in polypropylene Eppendorf with final concentrations of 8000 down to 3.9 pg/ml (1/2 dilution step). Samples, standards and blanks (100 μl) were added to the anti-Aβ42-coated plate supplied with the kit (the capture antibody selectively recognizes the C-terminal end of the antigen). The plate was allowed to incubate 3 h at 25° C. in order to allow formation of the antibody-amyloid complex. Following this incubation and subsequent wash steps a selective anti-Aβ-antibody conjugate (biotinylated 3D6) was added and incubated for a minimum of 1 hour in order to allow formation of the antibody-Amyloid-antibody-complex. After incubation and appropriate wash steps, a Streptavidine-Peroxidase-Conjugate was added, followed 30 minutes later by an addition of 3,3′,5,5′-tetramethylbenzidine (TMB)/peroxide mixture, resulting in the conversion of the substrate into a coloured product. This reaction was stopped by the addition of sulfuric acid (0.9 N) and the colour intensity was measured by means of photometry with an ELISA-reader with a 450 nm filter.
(§6) To obtain the values reported in Table 3a, the sigmoidal dose response curves were analysed by computerised curve-fitting, with percent of inhibition plotted against compound concentration. A 4-parameter equation (model 205) in XLfit was used to determine the IC50. The top and the bottom of the curve were fixed to 100 and 0, respectively, and the hill slope was fixed to 1. The IC50 represents the concentration of a compound that is required for inhibiting a biological effect by 50% (Here, it is the concentration where Aβ peptide level is reduced by 50%).
as §4, with “3b,” for “3c,”, “IC50. The values reported in Table 3b are averaged IC50 values.” for “IC50.”

Aβtotal [4] = assay: Screening for γ-secretase-modulating activity, Method 1: Aβtotal sandwich ELISA on SKNBE2 cell media; conditions: SKNBE2 cells carrying APP 695 wild type
Procedure: as §1, with “Gibco” for “Invitrogen”, “31330-38)” for “10371-029)”, “acids.” for “acids, 1-glutamine 2 mM, Hepes 15 mM, penicillin 50 U/ml (units/ml) en streptomycin 50 μg/ml.”
as §5
To quantify the amount of Aβtotal in the cell supernatant, samples and standards were added to a 6E10-coated plate. The plate was allowed to incubate overnight at 4° C. in order to allow formation of the antibody-amyloid complex. Following this incubation and subsequent wash steps a selective anti-Aβ-antibody conjugate (biotinylated 4G8) was added and incubated for a minimum of 1 hour in order to allow formation of the antibody-Amyloid-antibody-complex. After incubation and appropriate wash steps, a Streptavidine-Peroxidase-Conjugate was added, followed 30 minutes later by an addition of Quanta Blu fluorogenic peroxidase substrate according to the manufacturer's instructions (Pierce Corp., Rockford, Ill.).
as §6
as §4, with “3b,” for “3c,”, “IC50. The values reported in Table 3b are averaged IC50 values.” for “IC50.”

[5] = Homo sapiens, Table 3a, 18 hours, XLfit, top/bottom fixed to 100 and 0, hill slope 1
[6] = Homo sapiens, Table 3b, non-linear regression of % of control, averaged IC50 values
[7] = Table 3a, 18 hours, XLfit, top/bottom fixed to 100 and 0, hill slope 1
[8] = Table 3b, non-linear regression of % of control, averaged IC50 values

SMILES	IC50 (Aβ42 [1]) [µM]	IC50 (Aβtotal [2]) [µM]	IC50 (Aβ42 [3]; [7]) [µM]	IC50 (Aβ42 [3]; [8]) [µM]	IC50 (Aβtotal [4]; [7]) [µM]	IC50 (Aβtotal [4]; [8]) [µM]	also measured
COc1cc(Nc2cccc3c2nc(-c2ccc(F)cc2)n3C(C)C)ccc1-n1cnc(C)c1 [Compound 2]	–	–	–	–	–	–	IC50 (Aβ42 [1]; Homo sapiens): 0.009 µM; IC50 (Aβtotal [2]; Homo sapiens): 9.33 µM; IC50 (Aβ42 [3]; [5]): 0.012 µM; IC50 (Aβ42 [3]; [6]): 0.012 µM; IC50 (Aβtotal [4]; [5]): > 1 µM; IC50 (Aβtotal [4]; [6]): > 1 µM
COc1cc(Nc2cccc3c2nc(CC2CCNCC2)n3C)ccc1-n1cnc(C)c1 [Compound 9]	–	–	–	–	–	–	IC50 (Aβ42 [1]; Homo sapiens): > 3 µM; IC50 (Aβtotal [2]; Homo sapiens): > 3 µM; IC50 (Aβ42 [3]; [5]): 0.6 µM; IC50 (Aβ42 [3]; [6]): 0.603 µM; IC50 (Aβtotal [4]; [5]): > 3 µM; IC50 (Aβtotal [4]; [6]): > 3 µM
Cc1ncn(-c2ccc(Nc3cccc4c3nc(C)n4C(C)C)cc2)n1 [Compound 20]	> 3	> 3	> 3	> 3	> 3	> 3	–
COc1cc(Nc2cccc3c2nc(C)n3Cc2ccccc2)ccc1-n1cnc(C)c1 [Compound 22]	0.151	> 10	< 0.11	< 0.11	> 3	> 3	–
Cc1ncn(-c2ccc(Nc3cccc4c3nc(C)n4Cc3ccccc3)cc2)n1 [Compound 23]	> 3	> 3	1.91	1.86	> 10	> 10	–
COc1cc(Nc2cccc3c2nc(SCC(C)C)n3C)ccc1-n1cnc(C)c1 [Compound 33]	0.245	> 10	< 0.11	< 0.11	> 3	> 3	–
CCn1c(CCC(F)(F)F)nc2c(Nc3ccc(-n4cnc(C)c4)c(OC)c3)cccc21 [Compound 35]	0.06	> 10	0.024	0.022	> 1	> 10	–
COc1cc(Nc2cccc3oc(C4CCN(C)CC4)nc23)ccc1-n1cnc(C)c1 [Compound 40]	> 3	> 3	1.95	1.95	> 3	> 3	–
COc1cc(Nc2cccc3oc(C4CCN(C(C)=O)CC4)nc23)ccc1-n1cnc(C)c1 [Compound 41]	7.59	> 10	> 3	> 3	> 3	> 3	–
COc1cccc(-c2nc3c(Nc4ccc(-n5cnc(C)n5)cc4)cccc3n2C(C)C)c1 [Compound 51]	0.079	> 10	0.053	0.058	> 3	> 3	–
Cc1ncn(-c2ccc(Nc3cc(C(F)(F)F)cc4c3nc(-c3ccc(F)cc3)n4C)cc2)n1 [Compound 69]	0.417	> 10	0.106	0.117	–	–	–
COc1cc(Nc2nccc3c2nc(CC2CC2)n3C)ccc1-n1ncnc1C [Compound 101]	5.89	> 10	> 3	> 3	–	–	–
Cc1ncn(-c2ccc(Nc3cccc4c3nc(-c3ccc(F)cc3)n4C)cc2)n1 [Compound 103]	0.102	> 10	0.087	0.089	–	–	–
COc1cc(Nc2cccc3c2nc(C2CCOCC2)n3C(C)C)ccc1-n1cnc(C)n1 [Compound 120]	9.77	> 10	–	> 3	–	–	–
Cc1ncn(-c2ccc(Nc3nccc4c3nc(-c3ccc(F)cc3F)n4C)c(F)c2)n1 [Compound 129]	> 10	> 10	–	> 3	–	–	–
COc1nc(Nc2cccc3c2nc(-c2cccc(C#N)c2)n3C)ccc1-n1cnc(C)c1 [Compound 198]	0.048	> 10	–	–	–	–	–
COc1cc(Nc2ccnc3c2nc(-c2ccc(F)cc2)n3C)ccc1-n1cnc(C)n1 [Compound 200]	0.04	> 10	–	–	–	–	–
Cc1cn(-c2ccc(Nc3ccnc4c3nc(-c3ccc(F)cc3)n4C)cc2F)cn1 [Compound 205]	0.063	> 10	–	–	–	–	–

Second part, led by results:

IC50 (Aβ42 [1]) [µM]	IC50 (Aβtotal [2]) [µM]	IC50 (Aβ42 [3]; [7]) [µM]	IC50 (Aβ42 [3]; [8]) [µM]	IC50 (Aβtotal [4]; [7]) [µM]	IC50 (Aβtotal [4]; [8]) [µM]	SMILES	also measured
0.013	> 10	0.02	0.028	> 1	> 3	COc1cccc(-c2nc3c(Nc4ccc(-n5cnc(C)c5)c(OC)c4)cccc3n2C)c1 [Compound 49]	–
0.004	6.61	–	0.01	–	–	COc1nc(Nc2cccc3c2nc(-c2ccc(F)cc2)n3C(C)C)ccc1-n1cnc(C)c1 [Compound 116]	–
0.022	> 10	–	–	–	–	COc1ccc(-c2nc3c(Nc4ccc(-n5cnc(C)c5)c(OC)n4)cccc3n2C)c(C)c1 [Compound 194]	–
0.025	6.46	–	–	–	–	COc1nc(Nc2cccc3c2nc(-c2cc(C(F)(F)F)ccc2C)n3C)ccc1-n1cnc(C)c1 [Compound 195]	–
0.019	8.51	–	–	–	–	COc1nc(Nc2cccc3c2nc(-c2ccccc2)n3C)ccc1-n1cnc(C)c1 [Compound 196]	–
0.035	8.23	–	–	–	–	COc1nc(Nc2cccc3c2nc(-c2ccc(N(C)C)cc2)n3C)ccc1-n1cnc(C)c1 [Compound 197]	–
0.013	> 10	–	–	–	–	COc1cc(Nc2cc(C3CC3)nc3c2nc(-c2ccc(F)cc2)n3C)ccc1-n1cnc(C)n1 [Compound 199]	–
0.004	> 10	–	–	–	–	COc1nc(Nc2ccnc3c2nc(-c2ccc(F)cc2)n3C)ccc1-n1cnc(C)c1 [Compound 201]	–
0.004	> 10	–	–	–	–	COc1nc(Nc2cc(C)nc3c2nc(-c2ccc(F)cc2)n3C)ccc1-n1cnc(C)c1 [Compound 203]	–
0.014	> 10	–	–	–	–	COc1cc(Nc2ccc(-n3cnc(C)c3)c(F)c2)c2nc(-c3ccc(F)cc3)n(C)c2n1 [Compound 204]	–
